According to patent US9695200B2, “Heterocyclic ITK inhibitors for treating inflammation and cancer” (Confluence Life Sciences, Inc., priority 2015, dated 2017):

How the values were obtained:
[1] = tested on: phospho-PLCγ1 in Jurkat cells; assay: ITK target modulation PLC-γ assay (phospho-PLCγ1, αCD3-stimulated Jurkat cells); assay type: cell-based, human; conditions: Homo sapiens, 1 hour compound incubation, αCD3 Dynabeads stimulation 8 minutes, MSD phospho-PLCγ1, read-out: PLC-γ Inhibition IC50
Description: Jurkat cells, an immortalized human T-lymphocyte cell line, were maintained in RPMI media, 10% FBS, 1% pen/strep/glutamine (growth media). Cells were plated in growth media plus 50 μM β-mercaptoethanol at 400,000 cells per well of a 96 well plate.
Compounds were serially diluted into DMSO, and then into media to concentrations 10× that of the final assay concentration. Compounds were then added to the cells with the final assay DMSO concentration being 0.1%. Cells were incubated for 1 hour at 37° C.
Following compound incubation, αCD3 Dynabeads were added at 1 bead/cell to each assay well and incubated at 37° C. for 7 minutes. Unstimulated control wells received media only. The plate was then placed on a 96-well magnetic plate for an additional 60 seconds (total assay stimulation time equals 8 minutes). The plate was then dumped and gently patted dry on a paper towel. 50 μl of complete Meso Scale Discovery (MSD) Lysis buffer was then added to each well. Samples were assayed for phospho-PLCγ1 using Meso Scale Discovery technology.
The assay stimulation time has been optimized for detection of Itk kinase-mediated phosphorylation of PLCγ1. The timing and detection reagents for this assay could be adjusted to capture phosphorylation events upstream (e.g., phospho-ZAP70) or downstream of the Itk/PLCγ1 node, provided the appropriate phospho-specific antibodies are available for building of an MSD assay.

ITK = ITK (Homo sapiens (Human), UniProt Q08881); assay: ITK inhibitor binding potency (LanthaScreen competitive binding assay); conditions: TR-FRET tracer-236 displacement, 10 nM ITK; pre-incubation condition not given; read-out: ITK Inhibition IC50
ITK, sequence (Q08881 whole entry): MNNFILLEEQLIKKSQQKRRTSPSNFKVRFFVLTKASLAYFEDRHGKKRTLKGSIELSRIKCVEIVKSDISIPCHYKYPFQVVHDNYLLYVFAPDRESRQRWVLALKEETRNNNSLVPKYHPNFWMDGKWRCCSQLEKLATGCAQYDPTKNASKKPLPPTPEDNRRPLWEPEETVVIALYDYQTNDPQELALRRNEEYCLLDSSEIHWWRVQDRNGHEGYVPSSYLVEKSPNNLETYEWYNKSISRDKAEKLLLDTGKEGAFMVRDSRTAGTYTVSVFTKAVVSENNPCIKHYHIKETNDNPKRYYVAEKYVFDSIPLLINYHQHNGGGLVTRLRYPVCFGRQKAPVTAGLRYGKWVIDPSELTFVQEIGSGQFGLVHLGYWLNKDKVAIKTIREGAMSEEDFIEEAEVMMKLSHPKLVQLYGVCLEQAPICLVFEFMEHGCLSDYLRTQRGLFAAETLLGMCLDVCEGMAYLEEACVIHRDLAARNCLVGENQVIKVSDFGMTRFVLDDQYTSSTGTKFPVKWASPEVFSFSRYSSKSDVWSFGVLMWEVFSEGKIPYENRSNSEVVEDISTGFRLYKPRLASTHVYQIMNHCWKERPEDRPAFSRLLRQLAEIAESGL
Source text: The ability of candidate compounds to interact with ITK is quantitated by a competitive binding assay using the LanthaScreen technology developed by Life Technologies. This assay is based on the binding of a proprietary, Alexa Fluor® 647-labeled, ATP-competitive kinase inhibitor (kinase tracer-236) to the ITK expression construct in the presence of a Europium-conjugated antibody, resulting in a FRET (fluorescence resonance energy transfer) signal. Displacement of the kinase tracer by compound results in a lower emission ratio upon excitation of the Europium chelate. Candidate compounds are designed as potential irreversible inhibitors of ITK, capable of ligating to an active site cysteine residue resulting in time dependent covalent binding. The time dependent nature of irreversible inhibition is investigated by performing the binding assay with and without a pre-incubation of compound and ITK. […] The inhibitory potency of candidate compounds is measured in 20 mM HEPES pH 7.5, 10 mM MgCl2, 0.01% BSA, 0.0005% Tween-20, and 2% DMSO in the presence of 10 nM ITK, 2 nM Eu-anti-GST antibody, and 50 nM kinase tracer-236 using a 384-well plate format. Background signal is defined in the absence of ITK and uninhibited signal is defined in the presence of vehicle (2% DMSO) alone. Compounds were evaluated in an 11 point dose-response ranging from 20 uM to 0.34 nM. The binding assays are performed under two preincubation conditions to evaluate time dependence of inhibition. For the pre-incubation assay, ITK and Eu-anti-GST antibody are pre-incubated with compound or vehicle for two hours prior to the addition of kinase tracer. The non-preincubated assay is run under conditions where ITK and Eu-anti-GST antibody are added to a mixture of compound and kinase tracer. IC50 values of compounds are determined using a 4 parameter logistical fit of emission ratio as a function of the concentration of compound.

| SMILES | IC50 [1] [nM] | IC50 (ITK) [nM] |
| --- | --- | --- |
| C=CC(=O)NC1CN(c2cnc3[nH]cc(-c4ccccc4)c3c2)C1 [Example 1, N-(1-(3-Phenyl-1H-pyrrolo[2,3-b]pyridin-5-yl)azetidin-3-yl)acrylamide] | > 5000 | ≤ 1000 |
| C=CC(=O)NC1CN(c2cnc3[nH]cc(-c4ccnc(OC)c4)c3c2)C1 [Example 2, N-(1-(3-(2-Methoxypyridin-4-yl)-1H-pyrrolo[2,3-b]pyridin-5-yl)azetidin-3-yl)acrylamide] | – | ≤ 1000 |
| C=CC(=O)NC1CN(c2cnc3[nH]cc(-c4ccc(OC)nc4)c3c2)C1 [Example 3, N-(1-(3-(6-Methoxypyridin-3-yl)-1H-pyrrolo[2,3-b]pyridin-5-yl)azetidin-3-yl)acrylamide] | – | ≤ 1000 |
| C=CC(=O)NC1CN(c2cnc3[nH]cc(-c4ccnc(C)c4)c3c2)C1 [Example 4, N-(1-(3-(2-Methylpyridin-4-yl)-1H-pyrrolo[2,3-b]pyridin-5-yl)azetidin-3-yl)acrylamide] | > 5000 | ≤ 1000 |
| N#C/C(=C\c1cccc(-c2cnc3[nH]cc(-c4ccncc4)c3c2)c1)C(N)=O [Example 8, (E)-2-Cyano-3-(3-(3-(pyridin-4-yl)-1H-pyrrolo[2,3-b]pyridin-5-yl)phenyl)acrylamide] | 1000 to 5000 | ≤ 1000 |
| COc1cc(-c2c[nH]c3ncc(-c4cccc(/C=C(\C#N)C(N)=O)c4)cc23)ccn1 [Example 9, (E)-2-Cyano-3-(3-(3-(2-methoxypyridin-4-yl)-1H-pyrrolo[2,3-b]pyridin-5-yl)phenyl)acrylamide] | > 5000 | ≤ 1000 |
| C=CC(=O)NC1CN(c2cnc3[nH]cc(-c4ccncc4)c3c2)C1 [Example 10, N-(1-(3-(Pyridin-4-yl)-1H-pyrrolo[2,3-b]pyridin-5-yl)azetidin-3-yl)acrylamide] | > 5000 | ≤ 1000 |
| C=CC(=O)N[C@H]1CCN(c2cnc3[nH]cc(-c4ccncc4)c3c2)C1 [Example 14, (S)-N-(1-(3-(pyridin-4-yl)-1H-pyrrolo[2,3-b]pyridin-5-yl)pyrrolidin-3-yl)acrylamide] | > 5000 | ≤ 1000 |
| C=CC(=O)N[C@H]1CCCN(c2cnc3[nH]cc(-c4ccncc4)c3c2)C1 [Example 15, (S)-N-(1-(3-(pyridin-4-yl)-1H-pyrrolo[2,3-b]pyridin-5-yl)piperidin-3-yl)acrylamide] | > 5000 | ≤ 1000 |
| N#CN[C@H]1CCN(c2cnc3[nH]cc(-c4ccncc4)c3c2)C1 [Example 18, (S)-N-(1-(3-(pyridin-4-yl)-1H-pyrrolo[2,3-b]pyridin-5-yl)pyrrolidin-3-yl)cyanamide] | – | ≤ 1000 |
| C=CC(=O)N(C)c1cccc(-c2cnc3[nH]cc(-c4ccnc(OC)c4)c3c2)c1 [Example 21, N-(3-(3-(2-methoxypyridin-4-yl)-1H-pyrrolo[2,3-b]pyridin-5-yl)phenyl)-N-methylacrylamide] | 1000 to 5000 | ≤ 1000 |
| O=C(/C=C/CN1CCOCC1)Nc1cccc(-c2cnc3[nH]cc(-c4ccncc4)c3c2)c1 [Example 23, (E)-4-morpholino-N-(3-(3-(pyridin-4-yl)-1H-pyrrolo[2,3-b]pyridin-5-yl)phenyl)but-2-enamide] | 1000 to 5000 | ≤ 1000 |
| CN(C)C/C=C/C(=O)Nc1cccc(-c2cnc3[nH]cc(-c4ccncc4)c3c2)c1 [Example 24, (E)-4-(dimethylamino)-N-(3-(3-(pyridin-4-yl)-1H-pyrrolo[2,3-b]pyridin-5-yl)phenyl)but-2-enamide] | < 1000 | ≤ 1000 |
| CN(C)C/C=C/C(=O)Nc1cccc(-c2cnc3[nH]cc(-c4ccc(=O)n(C)c4)c3c2)c1 [Example 34, (E)-4-(dimethylamino)-N-(3-(3-(1-methyl-6-oxo-1,6-dihydropyridin-3-yl)-1H-pyrrolo[2,3-b]pyridin-5-yl)phenyl)but-2-enamide] | > 5000 | > 1000 |
| C=CC(=O)NC1CN(c2cnc3[nH]cc(-c4ccnc(F)c4)c3c2)C1 [Example 35, N-(1-(3-(2-fluoropyridin-4-yl)-1H-pyrrolo[2,3-b]pyridin-5-yl)azetidin-3-yl)acrylamide] | > 5000 | ≤ 1000 |
| C=CC(=O)NC1CN(c2cnc3[nH]cc(-c4ccnc(NC)c4)c3c2)C1 [Example 36, N-(1-(3-(2-(methylamino)pyridin-4-yl)-1H-pyrrolo[2,3-b]pyridin-5-yl)azetidin-3-yl)acrylamide] | > 5000 | ≤ 1000 |
| COc1cc(-c2c[nH]c3ncc(-c4cccc(NC(=O)/C=C/CN(C)C)c4)cc23)ccn1 [Example 37, (E)-4-(dimethylamino)-N-(3-(3-(2-methoxypyridin-4-yl)-1H-pyrrolo[2,3-b]pyridin-5-yl)phenyl)but-2-enamide] | 1000 to 5000 | ≤ 1000 |
| COc1cc(-c2c[nH]c3ncc(-c4cccc(NC(=O)/C=C/CN5CCOCC5)c4)cc23)ccn1 [Example 38, (E)-N-(3-(3-(2-methoxypyridin-4-yl)-1H-pyrrolo[2,3-b]pyridin-5-yl)phenyl)-4-morpholinobut-2-enamide] | > 5000 | ≤ 1000 |
| C=CC(=O)Nc1cc(-c2cnc3[nH]cc(-c4ccnc(OC)c4)c3c2)cc(N2CCOCC2)n1 [Example 41, N-(4-(3-(2-methoxypyridin-4-yl)-1H-pyrrolo[2,3-b]pyridin-5-yl)-6-morpholinopyri-din-2-yl)acrylamide] | < 1000 | ≤ 1000 |

Further lines, results first:

| IC50 [1] [nM] | IC50 (ITK) [nM] | SMILES |
| --- | --- | --- |
| < 1000 | ≤ 1000 | C=CC(=O)Nc1cccc(-c2cnc3[nH]cc(-c4ccnc(OC)c4)c3c2)c1 [Example 6, N-(3-(3-(2-Methoxypyridin-4-yl)-1H-pyrrolo[2,3-b]pyridin-5-yl)phenyl)acrylamide] |
| – | > 1000 | C=CC(=O)Nc1cccc(-c2cnc3[nH]cc(-c4ccncc4)c3c2)c1 [Example 7, N-(3-(3-(pyridin-4-yl)-1H-pyrrolo[2,3-b]pyridin-5-yl)phenyl)acrylamide] |
| < 1000 | ≤ 1000 | C=CC(=O)Nc1cc(-c2cnc3[nH]cc(-c4ccnc(OC)c4)c3c2)cc(C(F)(F)F)c1 [Example 11, N-(3-(3-(2-Methoxypyridin-4-yl)-1H-pyrrolo[2,3-b]pyridin-5-yl)-5-(trifluoromethyl)phenyl)acrylamide] |
| – | ≤ 1000 | C=CC(=O)Nc1cncc(-c2cnc3[nH]cc(-c4ccncc4)c3c2)c1 [Example 16, N-(5-(3-(pyridin-4-yl)-1H-pyrrolo[2,3-b]pyridin-5-yl)pyridin-3-yl)acrylamide] |
| > 5000 | ≤ 1000 | C=CC(=O)Nc1cncc(-c2cnc3[nH]cc(-c4ccc(=O)n(C)c4)c3c2)c1 [Example 17, N-(5-(3-(1-methyl-6-oxo-1,6-dihydropyridin-3-yl)-1H-pyrrolo[2,3-b]pyridin-5-yl)pyridin-3-yl)acrylamide] |
| – | ≤ 1000 | C=CC(=O)Nc1cncc(-c2cnc3[nH]cc(-c4ccnc(F)c4)c3c2)c1 [Example 27, N-(5-(3-(2-fluoropyridin-4-yl)-1H-pyrrolo[2,3-b]pyridin-5-yl)pyridin-3-yl)acrylamide] |
| < 1000 | ≤ 1000 | C=CC(=O)Nc1cncc(-c2cnc3[nH]cc(-c4ccnc(C)c4)c3c2)c1 [Example 28, N-(5-(3-(2-methylpyridin-4-yl)-1H-pyrrolo[2,3-b]pyridin-5-yl)pyridin-3-yl)acrylamide] |
| 1000 to 5000 | ≤ 1000 | C=CC(=O)Nc1cccc(-c2cnc3[nH]cc(-c4cc(OC)ncn4)c3c2)c1 [Example 39, N-(3-(3-(6-methoxypyrimi-din-4-yl)-1H-pyrrolo[2,3-b]pyridin-5-yl)phenyl)acryl-amide] |
| – | ≤ 1000 | C=CC(=O)Nc1cc(-c2cnc3[nH]cc(-c4ccnc(OC)c4)c3c2)cc(OC)n1 [Example 40, N-(6-methoxy-4-(3-(2-methoxypyridin-4-yl)-1H-pyrrolo[2,3-b]pyridin-5-yl)pyridin-2-yl)acrylamide] |
